The term pKi denotes the Ki on a negative log10 scale, so that one unit is a factor of ten.

Assay [1] deals with full-length ATR (Homo sapiens (Human), UniProt Q13535). Nature of the assay: ATR Inhibition Assay (radioactive-phosphate incorporation). The assay is classed as biochemical. The protocol: Compounds were screened for their ability to inhibit ATR kinase using a radioactive-phosphate incorporation assay. Assays were carried out in a mixture of 50 mM Tris/HCl (pH 7.5), 10 mM MgCl2 and 1 mM DTT. Final substrate concentrations were 10 μM [γ-33P]ATP (3 mCi 33P ATP/mmol ATP, Perkin Elmer) and 800 μM target peptide ([…]).
full-length ATR, sequence (Q13535 whole entry): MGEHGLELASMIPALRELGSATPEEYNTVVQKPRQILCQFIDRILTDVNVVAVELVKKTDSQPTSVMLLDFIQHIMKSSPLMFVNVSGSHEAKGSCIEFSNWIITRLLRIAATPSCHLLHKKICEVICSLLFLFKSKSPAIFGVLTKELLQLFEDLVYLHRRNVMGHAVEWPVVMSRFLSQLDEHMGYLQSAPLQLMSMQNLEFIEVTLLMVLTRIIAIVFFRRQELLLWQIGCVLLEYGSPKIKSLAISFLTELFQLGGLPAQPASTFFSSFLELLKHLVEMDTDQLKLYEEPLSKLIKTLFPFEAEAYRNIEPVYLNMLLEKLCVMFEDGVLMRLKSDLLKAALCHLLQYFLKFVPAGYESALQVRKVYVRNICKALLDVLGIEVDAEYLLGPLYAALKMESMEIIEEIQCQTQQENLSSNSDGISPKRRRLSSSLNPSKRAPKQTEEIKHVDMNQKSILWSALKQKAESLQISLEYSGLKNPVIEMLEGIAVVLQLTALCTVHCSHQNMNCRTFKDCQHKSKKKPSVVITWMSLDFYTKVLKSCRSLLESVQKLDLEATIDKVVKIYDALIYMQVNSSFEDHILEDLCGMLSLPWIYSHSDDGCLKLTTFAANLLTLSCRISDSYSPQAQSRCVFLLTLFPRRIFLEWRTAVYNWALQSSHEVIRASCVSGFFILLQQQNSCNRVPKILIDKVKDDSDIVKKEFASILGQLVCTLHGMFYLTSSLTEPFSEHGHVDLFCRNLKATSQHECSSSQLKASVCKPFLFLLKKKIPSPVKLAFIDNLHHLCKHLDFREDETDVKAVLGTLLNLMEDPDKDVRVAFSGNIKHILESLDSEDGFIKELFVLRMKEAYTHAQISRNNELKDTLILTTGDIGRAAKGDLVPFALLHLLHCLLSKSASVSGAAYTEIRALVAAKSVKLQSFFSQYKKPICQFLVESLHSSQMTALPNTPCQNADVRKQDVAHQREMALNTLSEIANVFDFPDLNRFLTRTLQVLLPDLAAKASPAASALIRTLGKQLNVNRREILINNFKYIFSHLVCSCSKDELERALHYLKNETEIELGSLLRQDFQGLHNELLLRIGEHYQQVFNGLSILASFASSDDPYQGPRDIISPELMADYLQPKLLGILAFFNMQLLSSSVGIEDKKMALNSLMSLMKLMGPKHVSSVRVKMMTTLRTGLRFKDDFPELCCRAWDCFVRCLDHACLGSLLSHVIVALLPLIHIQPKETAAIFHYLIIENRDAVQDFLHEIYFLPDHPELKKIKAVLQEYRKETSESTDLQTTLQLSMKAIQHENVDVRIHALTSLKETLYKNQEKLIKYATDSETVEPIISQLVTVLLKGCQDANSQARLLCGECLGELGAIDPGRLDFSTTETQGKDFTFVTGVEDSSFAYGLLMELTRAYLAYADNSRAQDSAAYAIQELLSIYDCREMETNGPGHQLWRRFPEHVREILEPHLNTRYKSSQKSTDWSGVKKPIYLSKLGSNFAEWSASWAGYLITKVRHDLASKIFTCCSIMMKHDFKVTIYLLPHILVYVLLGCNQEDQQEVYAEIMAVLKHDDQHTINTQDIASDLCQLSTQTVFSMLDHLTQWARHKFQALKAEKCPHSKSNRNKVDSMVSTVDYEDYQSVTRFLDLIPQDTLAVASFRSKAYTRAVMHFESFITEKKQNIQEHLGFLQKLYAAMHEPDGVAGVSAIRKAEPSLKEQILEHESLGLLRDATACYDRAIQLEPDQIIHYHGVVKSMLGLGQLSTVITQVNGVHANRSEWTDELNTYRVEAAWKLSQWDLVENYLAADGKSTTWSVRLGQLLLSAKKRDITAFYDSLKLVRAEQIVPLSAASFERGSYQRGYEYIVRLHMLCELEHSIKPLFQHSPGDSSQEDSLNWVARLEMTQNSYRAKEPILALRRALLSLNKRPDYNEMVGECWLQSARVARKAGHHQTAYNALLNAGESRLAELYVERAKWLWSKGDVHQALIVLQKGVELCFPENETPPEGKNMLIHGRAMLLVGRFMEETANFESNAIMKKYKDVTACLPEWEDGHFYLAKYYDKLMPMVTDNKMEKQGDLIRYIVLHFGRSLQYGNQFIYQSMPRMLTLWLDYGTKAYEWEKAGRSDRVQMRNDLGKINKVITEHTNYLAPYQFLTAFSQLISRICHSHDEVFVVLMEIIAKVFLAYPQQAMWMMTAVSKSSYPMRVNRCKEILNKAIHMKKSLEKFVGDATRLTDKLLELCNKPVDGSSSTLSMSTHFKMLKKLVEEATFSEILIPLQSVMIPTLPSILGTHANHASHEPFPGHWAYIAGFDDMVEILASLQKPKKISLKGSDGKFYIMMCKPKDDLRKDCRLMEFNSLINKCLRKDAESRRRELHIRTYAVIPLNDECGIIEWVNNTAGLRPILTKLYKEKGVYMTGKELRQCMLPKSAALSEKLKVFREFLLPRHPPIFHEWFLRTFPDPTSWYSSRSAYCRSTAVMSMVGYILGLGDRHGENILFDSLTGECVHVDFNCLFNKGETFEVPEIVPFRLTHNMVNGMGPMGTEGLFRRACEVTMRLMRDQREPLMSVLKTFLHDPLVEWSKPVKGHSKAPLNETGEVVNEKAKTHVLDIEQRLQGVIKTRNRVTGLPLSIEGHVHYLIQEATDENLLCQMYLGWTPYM
Assays were carried out at 25° C. in the presence of 5 nM full-length ATR. An assay stock buffer solution was prepared containing all of the reagents listed above, with the exception of ATP and the test compound of interest. 13.5 μL of the stock solution was placed in a 96 well plate followed by addition of 2 μL of DMSO stock containing serial dilutions of the test compound (typically starting from a final concentration of 15 μM with 3-fold serial dilutions) in duplicate (final DMSO concentration 7%). The plate was pre-incubated for 10 minutes at 25° C. and the reaction initiated by addition of 15 μL [γ-33P]ATP (final concentration 10 μM).
The reaction was stopped after 24 hours by the addition of 30 μL 0.1 M phosphoric acid containing 2 mM ATP. A multiscreen phosphocellulose filter 96-well plate (Millipore, Cat no. MAPHNOB50) was pretreated with 100 μL 0.2M phosphoric acid prior to the addition of 45 μL of the stopped assay mixture. The plate was washed with 5×200 μL 0.2M phosphoric acid. After drying, 100 μL Optiphase ‘SuperMix’ liquid scintillation cocktail (Perkin Elmer) was added to the well prior to scintillation counting (1450 Microbeta Liquid Scintillation Counter, Wallac).
After removing mean background values for all of the data points, Ki(app) data were calculated from non-linear regression analysis of the initial rate data using the Prism software package (GraphPad Prism version 3.0cx for Macintosh, GraphPad Software, San Diego Calif., USA).
Below is a chart showing the ATR Inhibition Ki values of compounds of the disclosure.

Assay [2] deals with HCT116 colorectal cancer cells. Nature of the assay: Cisplatin Sensitization Assay (96h cell viability MTS). The assay is classed as cell-based. The settings on record: concentration of compound required to reduce the IC50 of Cisplatin alone by at least 3-fold, 96h MTS. On the procedure:
Compounds can be screened for their ability to sensitize HCT116 colorectal cancer cells to Cisplatin using a 96h cell viability (MTS) assay. […] Compounds and Cisplatin are then both added simultaneously to the cell media in 2-fold serial dilutions from a top final concentration of 10 μM as a full matrix of concentrations in a final cell volume of 200 μl, and the cells are then incubated at 37° C. in 5% CO2. After 96h, 40 μl of […] (Promega G358a) is added to each well and the cells are incubated for 1 h at 37° C. in 5% CO2.

The mark [3] stands for this setting: ATR Inhibition Ki(app), 10 μM ATP, 800 μM target peptide, 5 nM full-length ATR, 25° C.

Molecules are shown by their SMILES. pKi: −log10 of the molar value. Like-named read-outs stand apart in the source and are kept apart here.

For the compound `CNCc1ccc(-c2nnc(-c3nc(-c4ccc(=O)n(C(C)C)c4)cnc3N)o2)cc1` [Compound I-3], the pKi in assay [1] (setting [3]) was 7.30 to 8.30. Moreover, the “CP3 shift” value in assay [2] stood at 0.234 µM.
The corresponding values for `CNCc1ccc(-c2nnc(-c3nc(-c4ccc(=O)n(C(C)C)c4)cnc3N)o2)c(OC)c1` [Compound I-6] are at least 8.30 and 0.156 µM.
With `CNCc1ccc(-c2cc(-c3nc(-c4ccc(=O)n(C(C)C)c4)cnc3N)on2)cc1` [Compound I-11], the pKi in assay [1] (setting [3]) is at least 8.30. In assay [2], the “CP3 shift” value stood at 0.156 µM.
Turning to `CNCc1ccc(-c2cc(-c3nc(-c4ccc(=O)n(C(C)C#N)c4)cnc3N)on2)cc1` (centres unmarked) [Compound I-15], the pKi in assay [1] (setting [3]) was at least 8.30. For the same compound, the “CP3 shift” value in assay [2] turned out to be 0.039 µM.
`CNCc1ccc(-c2cc(-c3nc(-c4ccc(=O)n(C5CCC(C)C5)c4)cnc3N)on2)cc1` (centres unmarked) [Compound I-22]: the pKi in assay [1] (setting [3]) is at least 8.30. Also, the “CP3 shift” value in assay [2] amounted to 0.02 µM.
As to `CNCc1ccc(-c2nnc(-c3nc(-c4ccc(=O)n(C5CCCC5)c4)cnc3N)o2)c(OC)c1` [Compound I-32], in assay [1] (setting [3]), the pKi was at least 8.30. Moreover, the “CP3 shift” value in assay [2] stood at 0.079 µM.
For `CNCc1ccc(-c2nnc(-c3nc(-c4ccc(=O)n(C(C)C5CC5)c4)cnc3N)o2)c(OC)c1` (centres unmarked) [Compound I-37] the same measures were at least 8.30 and 0.078 µM.
As for `CC(N)c1cccc(-c2nnc(-c3nc(-c4ccc(=O)n(C(C)C)c4)cnc3N)o2)c1` (centres unmarked) [Compound I-42], the pKi in assay [1] (setting [3]) was at least 8.30. In addition, in assay [2], the “CP3 shift” value is 0.156 µM.
With `CNCc1cccc(-c2cc(-c3nc(-c4ccc(=O)n(C(C)C)c4)cnc3N)on2)c1` [Compound I-49, 5-(5-amino-6-(3-(3-((methylamino)methyl)phenyl)isoxazol-5-yl)pyrazin-2-yl)-1-isopropylpyridin-2(1H)-one], the pKi in assay [1] was 7.30 to 8.30. Also, in assay [2], the “CP3 shift” value worked out at 0.625 µM.
Take `CC(C)(C)NCc1ccc(-c2cc(-c3nc(-c4ccc(=O)n(C5CCCC5)c4)cnc3N)on2)cc1` [Compound I-50]: the pKi in assay [1] (setting [3]) was at least 8.30. The “CP3 shift” value in assay [2] is 0.312 µM.
For `CNCc1ccc(-c2cc(-c3nc(-c4ccc(=O)n(C(C)C5CC5)c4)cnc3N)on2)c(F)c1` (centres unmarked) [Compound I-54] the same measures were at least 8.30 and 0.039 µM.
Regarding `CC(N)c1cccc(-c2cc(-c3nc(-c4ccc(=O)n(C(C)C)c4)cnc3N)on2)c1` (centres unmarked) [Compound I-55], the pKi in assay [1] (setting [3]) is at least 8.30. In addition, the “CP3 shift” value in assay [2] is 0.039 µM.
Take `CC(N)c1cccc(-c2cc(-c3nc(-c4ccc(=O)n(C(C)C5CC5)c4)cnc3N)on2)c1` (centres unmarked) [Compound I-57, 5-(5-amino-6-(3-(3-(1-aminoethyl)phenyl)isoxazol-5-yl)pyrazin-2-yl)-1-(1-cyclopropylethyl)pyridin-2(1H)-one]: the pKi in assay [1] (setting [3]) was at least 8.30. The “CP3 shift” value in assay [2] was 0.02 µM.
Turning to `CC(C)n1cc(-c2cnc(N)c(-c3cc(-c4ccc(CN[C@H]5CCOC5)cc4)no3)n2)ccc1=O` [Compound I-58], the “CP3 shift” value in assay [2] was 0.312 µM.
As to `CC(C)NCc1ccc(-c2cc(-c3nc(-c4ccc(=O)n(C(C)C)c4)cnc3N)on2)cc1` [Compound I-60], in assay [1] (setting [3]), the pKi was at least 8.30. In assay [2], the “CP3 shift” value was determined as 0.312 µM.
For the compound `CC(C)n1cc(-c2cnc(N)c(-c3cc(-c4ccc(CNC5CC5)cc4)no3)n2)ccc1=O` [Compound I-61], the pKi in assay [1] (setting [3]) is at least 8.30. Besides, in assay [2], the “CP3 shift” value is 0.078 µM.
As to `CNCc1ccc(-c2cc(-c3nc(-c4ccc(=O)n(CC5CC5)c4)cnc3N)on2)cc1` [Compound I-62], in assay [1] (setting [3]), the pKi is at least 8.30. Further, the “CP3 shift” value in assay [2] worked out at 0.078 µM.
The corresponding values for `CCNCc1ccc(-c2cc(-c3nc(-c4ccc(=O)n(C(C)C)c4)cnc3N)on2)cc1` [Compound I-63] are at least 8.30 and 0.156 µM.
With `CNCc1ccc(-c2cc(-c3nc(-c4ccc(=O)n(C(C)C)c4)cnc3N)on2)c(OC)c1` [Compound I-64], the negative logarithm of the Ki (pKi) in assay [1] (setting [3]) was at least 8.30. For the same compound, the “CP3 shift” value in assay [2] is 0.078 µM.
For `CNCc1ccc(-c2cc(-c3nc(-c4ccc(=O)n(CC5(C)CC5)c4)cnc3N)on2)cc1` [Compound I-68] the same measures were at least 8.30 and 0.039 µM.
Take `CNCc1ccc(-c2cc(-c3nc(-c4ccc(=O)n(CC5CC5C)c4)cnc3N)on2)cc1` (centres unmarked) [Compound I-72]: the pKi in assay [1] (setting [3]) is at least 8.30. Further, the “CP3 shift” value in assay [2] is 0.078 µM.
On to `CNCc1ccc(-c2cc(-c3nc(-c4ccc(=O)n(CCC#N)c4)cnc3N)on2)cc1` [Compound I-73], for which, in assay [1] (setting [3]), the pKi is at least 8.30. Moreover, the “CP3 shift” value in assay [2] worked out at 0.156 µM.
On to `CCC(Cn1cc(-c2cnc(N)c(-c3cc(-c4ccc(CNC)cc4)no3)n2)ccc1=O)OC` (centres unmarked) [Compound I-74], for which the pKi in assay [1] (setting [3]) is at least 8.30. The “CP3 shift” value in assay [2] was 0.078 µM.
The corresponding values for `CC[C@H](C)CCn1cc(-c2cnc(N)c(-c3cc(-c4ccc(CNC)cc4)no3)n2)ccc1=O` [Compound I-77] are at least 8.30 and 0.039 µM.
Regarding `CNCc1ccc(-c2cc(-c3nc(-c4c[nH]c(=O)c(Br)c4)cnc3N)on2)cc1` [Compound I-78], the pKi in assay [1] (setting [3]) is at least 8.30. Also, the “CP3 shift” value in assay [2] turned out to be 0.625 µM.
In the case of `CNCc1ccc(-c2cc(-c3nc(-c4ccc(=O)n(CC5(CO)CC5)c4)cnc3N)on2)cc1` [Compound I-80], in assay [1] (setting [3]), the pKi is at least 8.30. Besides, in assay [2], the “CP3 shift” value came out at 0.078 µM.
For `CCn1cc(-c2cnc(N)c(-c3cc(-c4ccc(CNC)cc4)no3)n2)ccc1=O` [Compound I-81], the pKi in assay [1] (setting [3]) is at least 8.30. In assay [2], the “CP3 shift” value came out at 0.156 µM.
Turning to `CCC(C)n1cc(-c2cnc(N)c(-c3cc(-c4ccc(CNC)cc4)no3)n2)ccc1=O` (centres unmarked) [Compound I-82], in assay [1] (setting [3]), the pKi is at least 8.30. In assay [2], the “CP3 shift” value was determined as 0.079 µM.
With `CCC(CC)n1cc(-c2cnc(N)c(-c3cc(-c4ccc(CNC)cc4)no3)n2)ccc1=O` [Compound I-83], in assay [1] (setting [3]), the pKi is at least 8.30. In addition, the “CP3 shift” value in assay [2] came out at 0.02 µM.
On to `CNCc1ccc(-c2cc(-c3nc(-c4ccc(=O)n(CC5CCCCO5)c4)cnc3N)on2)cc1` (centres unmarked) [Compound I-87], for which the pKi in assay [1] (setting [3]) was at least 8.30. Further, the “CP3 shift” value in assay [2] is 0.078 µM.
In the case of `CCc1cc(-c2cnc(N)c(-c3cc(-c4ccc(CNC)cc4)no3)n2)c[nH]c1=O` [Compound I-89], the negative logarithm of the Ki (pKi) in assay [1] (setting [3]) is at least 8.30. Moreover, the “CP3 shift” value in assay [2] worked out at 0.312 µM.
For `CNCc1ccc(-c2cc(-c3nc(-c4c[nH]c(=O)c(Cl)c4)cnc3N)on2)cc1` [Compound I-90] the same measures were at least 8.30 and 0.625 µM.
With `Nc1ncc(-c2ccc(=O)n(C3CCCC3)c2)nc1-c1cc(-c2ccc(CNC3CC3)cc2)no1` [Compound I-92], in assay [1] (setting [3]), the negative logarithm of the Ki (pKi) is at least 8.30. The “CP3 shift” value in assay [2] was 0.078 µM.
The corresponding values for `CCC(CC)n1cc(-c2cnc(N)c(-c3cc(-c4ccc(CNC5CC5)cc4)no3)n2)ccc1=O` [Compound I-93] are at least 8.30 and 0.02 µM.
Consider `CCC(CC)n1cc(-c2cnc(N)c(-c3cc(-c4cccc(C(C)N)c4)no3)n2)ccc1=O` (centres unmarked) [Compound I-94], for which the pKi in assay [1] (setting [3]) is at least 8.30. Besides, in assay [2], the “CP3 shift” value was 0.007 µM.
On to `CNCc1ccc(-c2cc(-c3nc(-c4ccc(=O)n(CCC5CC5)c4)cnc3N)on2)cc1` [Compound I-96], for which the pKi in assay [1] (setting [3]) is at least 8.30. For the same compound, the “CP3 shift” value in assay [2] stood at 0.078 µM.
As to `CCC(C#N)(CC)n1cc(-c2cnc(N)c(-c3cc(-c4ccc(CNC5CC5)cc4F)no3)n2)ccc1=O` [Compound I-135], in assay [2], the “CP3 shift” value stood at 0.01 µM.
In the case of `CC(CO)NCc1ccc(-c2cc(-c3nc(-c4ccc(=O)n(C(C)(C)C#N)c4)cnc3N)on2)cc1` (centres unmarked) [Compound I-147], the pKi in assay [1] (setting [3]) was at least 8.30.
Turning to `CNCc1ccc(-c2nnc(-c3nc(-c4ccc(=O)[nH]c4)cnc3N)o2)cc1` [Compound I-148], the pKi in assay [1] (setting [3]) is at least 8.30.
Take `CNCc1ccc(-c2nnc(-c3nc(-c4ccc(=O)n(C(C)C)c4C#N)cnc3N)o2)cc1` [Compound I-149]: the pKi in assay [1] (setting [3]) was 7.30 to 8.30.
Turning to `CNCc1ccc(-c2nnc(-c3nc(-c4ccc(=O)n(C(C)C)c4C)cnc3N)o2)c(C)c1` [Compound I-150], the pKi in assay [1] (setting [3]) is 7.00 to 7.30.
Same read-out and setting: next, `CNCc1ccc(-c2nnc(-c3nc(-c4ccc(=O)n(C(C)C)c4C#N)cnc3N)o2)c(C)c1` [Compound I-151]: 7.30 to 8.30.

Values taken from patent publication US9630956B2, “Compounds useful as inhibitors of ATR kinase” (Vertex Pharmaceuticals Incorporated, priority 2010, dated 2017).
